The results in this text go back to paper PMC11641365, “Evaluation of In Vitro Biological Activity of Flavanone/Chromanone Derivatives: Molecular Analysis of Anticancer Mechanisms in Colorectal Cancer” (International Journal of Molecular Sciences, 2024).

Experiment [1] has as its system Caco-2. The experiment in a line: Cell cycle analysis via flow cytometry (propidium iodide). The class given is cell-based, human. The conditions noted are these: compound at IC50, 24 h, vs control.
The subject of experiment [2] is Caco-2. The experiment can be described thus: Autophagy induction, monodansylcadaverine (MDC) fluorescence. In kind it is cell-based, human. The note with it: compound at IC50, 24 h, vs control. Here is the method: Autophagy induction in cells treated with the tested drugs was determined by measuring Monodansylcadaverine (MDC; Sigma-Aldrich; St. Louis, MO, USA) fluorescence according to a modified method described by Vázquez. […] In the cell, MDC accumulates in lipid-rich cell membranes. It has been shown that MDC can be used as a dye for detecting autophagy, as it accumulates in autophagolysosomes as a result of interaction with membrane lipids.
Cells were seeded in black 96-well fluorometric microplates at a density of 10 × 10^3 cells/mL. […] Following compound incubation, the medium was removed, and the cell monolayers were washed twice with HBSS (140 mM NaCl, 5 mM KCl, 0.8 mM MgCl2, 1.8 mM CaCl2, 1 mM Na2HPO4, 10 mM HEPES, and 1% glucose). A solution of MDC at a final concentration of 50 μM was added to each well and incubated in a CO2 cell culture incubator at 37 °C for 15 min. After incubation with MDC, the probe was removed, and the cells were lysed with 50 μL of lysis buffer (10 mM TRIS-HCl; pH 8 containing 0.1% Triton X-100). After lysis, fluorescence was measured at an excitation wavelength of λex = 390 nm and an emission wavelength of λem = 460 nm using a Perkin-Elmer LS-5B spectrofluorometer (Waltham, MA, USA). In order to normalize the number of cells in individual samples, the amount of DNA was determined by adding 50 μL of EB (final concentration 0.2 mM) to each well after measuring the MCB fluorescence and measuring the EB fluorescence at an excitation wavelength of λex = 530 nm and an emission wavelength of λem = 590 nm. The results were calculated as the ratio of MDC fluorescence to EB fluorescence.

Regarding `O=C1/C(=C/c2ccccc2)COc2ccccc21` [Compound 1], in experiment [1], the “Increase in the G2/M phase cell percentage” value came to 30%. The “Increase in MDC fluorescence intensity (autophagy)” value in experiment [2] was determined as 25%.
